This note sets out measurements from patent US6992079B2, “Substituted 11-phenyl-dibenzazepine compounds useful for the treatment or prevention of diseases characterized by abnormal cell proliferation” (President Fellows of Harvard College, priority 1997, dated 2006).

As a reminder, the inhibition is the drop in the measured response relative to a control, in per cent. A lower inhibition goes with a weak effect. By IC50 is commonly meant the concentration at which inhibition is half-maximal. The term melting point denotes the temperature of the solid-liquid transition.

Series [1] deals with NIH 3T3 mouse fibroblast cells. Kind of series: Mitogenic assay (mitogen-induced cell proliferation). It counts as cell-based. Particulars: NIH3T3, 10 μM compound.
The test system of a further series is A549. Kind of series: SRB antiproliferative assay. It counts as cell-based. To be noted: Homo sapiens. The text has this:
(§1) The cells were passaged using Trypsin (Gibco).
On the technique in general: The SRB assay estimates cell density from bound dye.

The next series deals with HT29. In words: SRB antiproliferative assay. The format is cell-based. To be noted: Homo sapiens.
Description: as §1

Another series concerns HTB174. Kind of series: SRB antiproliferative assay. To be noted: Homo sapiens, HTB174 (Lung), 5% FCS/5 day incubation. The format is cell-based.
Description: as §1

The next series relates to HeLa. In words: SRB antiproliferative assay. The format is cell-based. Particulars: Homo sapiens, HeLa (Cervical), 5% FCS/5 day incubation.
Description: as §1

The next series relates to U118MG. In words: SRB antiproliferative assay. The format is cell-based. To be noted: Homo sapiens, U-118-MG, U118MG (CNS), 5% FCS/5 day incubation.
Description: as §1

Another series relates to HEPG2. In words: SRB antiproliferative assay. It counts as cell-based. Particulars: Homo sapiens, HepG2, HEPG2 (Hepatocel), 5% FCS/5 day incubation.
Description: as §1

A further series has as its system MCF7. Kind of series: SRB antiproliferative assay. Particulars: Homo sapiens. The format is cell-based.
Description: as §1

The next series deals with MDA-MB-23. Kind of series: SRB antiproliferative assay. The format is cell-based. Particulars: Homo sapiens; MDA-MB-23 (Breast); SRB; 5% FCS/5 day incubation; read-out: IC50.
Description: as §1

The subject of another series is MMRU. In words: SRB antiproliferative assay. The format is cell-based. To be noted: Homo sapiens.
Description: as §1

Series [2] in a line: Preliminary toxicology, subcutaneous injection for 14 days. It counts as in vivo, CD-1 female mice. To be noted: mouse, in vivo, sc, 80 mg/kg/day. As for the experimental part: The toxicological effects of CLT, and compounds 28, 30 and 31 were tested in CD-1 female mice. A dose of 80 mg/kg/day was given to each mouse via subcutaneous injection for a period of 14 days. Preliminary toxicological data was determined by measuring body weight, gross pathology of organs blood chemistry and histology. The vehicle used was DMF 12%+2% Tween 20 88%.

The test system of series [3] is Ca^2+ from intracellular pools / capacitative Ca^2+ influx. In words: Intracellular Ca2+ release and capacitative Ca2+ influx. It counts as cell-based. Particulars: in vitro.
Series [4] concerns human melanoma MM-RU cells. In words: Lung metastases in MM-RU tumor-bearing mice. It counts as in vivo, nude mice.
In series [5] the test system is squamous cell carcinoma (KLN-205) cells. In words: Tumor growth in murine squamous cell carcinoma model. It counts as in vivo, mouse.
[6] abbreviates: A549, A549 (Lung), 5% FCS/5 day incubation.
The mark [7] stands for this setting: HT-29, HT29 (Colon), 5% FCS/5 day incubation.
[8] abbreviates: MCF7, MCF7 (Breast), 5% FCS/5 day incubation.
The mark [9] stands for this setting: MMRU (Melanoma), 5% FCS/5 day incubation.
The mark [10] stands for this setting: mouse, in vivo, po, 120 mg/kg/day.

`CN1Cc2ccccc2C(c2ccccc2)c2cc(Br)ccc21` (centres unmarked) [Compound 7] returned an inhibition at 10 µM in [1] (Mus musculus) of 99%.

For `CCOC(=O)C(=O)N1Cc2ccccc2C(c2ccccc2)c2ccccc21` (centres unmarked) [Compound 10], in series [1] (Mus musculus), at 10 µM the inhibition was 53%.

On to `COC(=O)N1Cc2ccccc2C(c2ccccc2)c2ccccc21` (centres unmarked) [Compound 6], for which the half-inhibitory concentration (IC50) was greater than 10 µM in the series on A549 (A549, A549, 5% FCS/2 days) and greater than 10 µM with HT29 (HT-29, HT29, 5% FCS/2 days). The same compound showed an inhibition at 10 µM in series [1] (Mus musculus) of 87%.

Compound `Cc1ccc(C(=O)N2Cc3ccccc3C(c3ccccc3)c3ccccc32)cc1` (centres unmarked) [Compound 22] registered a half-maximal inhibitory concentration (IC50) with HTB174 of 1.4 µM. The inhibition at 10 µM in series [1] (Mus musculus) is 99%.

Consider `O=C(Nc1ccccc1)N1Cc2ccccc2C(c2ccccc2Cl)c2ccccc21` (centres unmarked) [Compound 32], for which the inhibition at 10 µM in series [1] (Mus musculus) turned out to be 99%.

With `COc1ccc(C(=O)N2Cc3ccccc3C(c3ccccc3Cl)c3ccccc32)cc1` (centres unmarked) [Compound 27], the 50% inhibitory concentration (IC50) in the series with A549 (setting [6]) stood at 1.1 µM; in the series with HeLa, 0.2 µM; with U118MG, 0.4 µM; with HT29 (setting [7]), 0.4 µM; in the series on HTB174, 0.3 µM; in the series on HEPG2, 0.4 µM. Further, the IC50 with MCF7 (setting [8]) is 0.5 µM; with MDA-MB-23, greater than 1 µM. Also, in series [1] (Mus musculus), 10 µM produced 99% inhibition.

`COc1cccc2c1C(c1ccccc1Cl)c1cc(Cl)ccc1NC2` (centres unmarked) [Compound 18] registered an inhibition at 10 µM in series [1] (Mus musculus) of 99%.

With `CN1Cc2ccccc2C(c2ccccc2Cl)c2ccccc21` (centres unmarked) [Compound 4], the IC50 in the series on A549 (A549, A549, 2% FCS/3 days) was 11.4 µM; with HT29 (HT-29, HT29, 2% FCS/3 days), 9.7 µM; in the series on MMRU (MMRU, 2% FCS/3 days), 4.6 µM; with MCF7 (MCF7, MCF7, 2% FCS/3 days), 1.7 µM. For the same compound, in series [1] (Mus musculus), 10 µM produced 89% inhibition.

In turn, `O=C(O)C(=O)N1Cc2ccccc2C(c2ccccc2)c2ccccc21` (centres unmarked) [Compound 11] returned an inhibition at 10 µM in [1] (Mus musculus) of 32%.

With `c1ccc(CN2Cc3ccccc3C(c3ccccc3)c3ccccc32)cc1` (centres unmarked) [Compound 5], the inhibition at 10 µM in series [1] (Mus musculus) is 91%.

The compound `O=C(c1ccc(Cl)cc1)N1Cc2ccccc2C(c2ccccc2)c2ccccc21` (centres unmarked) [Compound 13] displayed an inhibition at 10 µM in series [1] (Mus musculus) of 97%.

Regarding `COc1cccc(C(=O)N2Cc3ccccc3C(c3ccccc3)c3ccccc32)c1` (centres unmarked) [Compound 17], testing at 10 µM in series [1] (Mus musculus) gave an inhibition of 99%.

`Clc1ccc2c(c1)C(c1ccccc1)c1cc3ccccc3cc1CN2` (centres unmarked) [Compound 15] had an inhibition at 10 µM in [1] (Mus musculus) of 40%.

For the compound `Clc1ccccc1C1c2ccccc2CNc2ccccc21` (centres unmarked) [Compound 3], in [1] (Mus musculus), testing at 10 µM gave an inhibition of 99%.

On to `COc1ccc2c(c1)CN(C(=O)c1ccc(Cl)cc1)c1ccc(Cl)cc1C2c1ccccc1Cl` (centres unmarked) [Compound 23], for which, in series [1] (Mus musculus), at 10 µM the inhibition was 55%.

Regarding `O=C(c1ccc([N+](=O)[O-])cc1)N1Cc2ccccc2C(c2ccccc2)c2ccccc21` (centres unmarked) [Compound 20], the IC50 was 0.6 µM with HeLa; 0.9 µM in the series on U118MG; 0.7 µM in the series with HT29 (setting [7]); 0.7 µM with HTB174; 0.9 µM in the series with HEPG2; greater than 1 µM with MDA-MB-23. In addition, in series [1] (Mus musculus), testing at 10 µM gave an inhibition of 95%.

Consider `O=C(Nc1ccc([N+](=O)[O-])cc1)N1Cc2ccccc2C(c2ccccc2Cl)c2ccccc21` (centres unmarked) [Compound 35], for which the IC50 in the series on A549 (setting [6]) was greater than 5 µM; in the series on HT29 (setting [7]), 4.8 µM; in the series with HTB174, 4 µM; in the series on HEPG2, 4.5 µM; in the series with MMRU (setting [9]), 3.1 µM; in the series with MCF7 (setting [8]) it was 2.4 µM. This compound showed an inhibition at 10 µM in [1] (Mus musculus) of 0%.

With `COc1ccc2c(c1)CNc1ccccc1C2(c1ccccc1)c1ccc(F)cc1` (centres unmarked) [Compound 12], the inhibition at 10 µM in series [1] (Mus musculus) amounted to 13%.

`COC(=O)N1Cc2ccccc2C(c2ccccc2Cl)c2ccccc21` (centres unmarked) [Compound 9, N-methoxycarbonyl-11-(2′-chlorophenyl)-5,6-dihydro-11H-dibenz[b,e]azepine] registered a melting point of 159 to 161 °C. Also, at 10 µM the inhibition in series [1] (Mus musculus) was 99%.

On to `O=C(c1ccccc1)N1Cc2ccccc2C(c2ccccc2)c2ccccc21` (centres unmarked) [Compound 16], for which the 50% inhibitory concentration (IC50) is greater than 5 µM in the series on A549 (setting [6]); 2.6 µM with HT29 (setting [7]); 3.4 µM with HEPG2; 2.7 µM in the series with MMRU (setting [9]); 4.2 µM in the series on MCF7 (setting [8]). Moreover, in series [1] (Mus musculus), 10 µM produced 99% inhibition.

With `COc1ccc(C(=O)N2Cc3ccccc3C(c3ccccc3)c3ccccc32)cc1` (centres unmarked) [Compound 21], the midpoint of inhibition with HTB174, the IC50, lay at 1.9 µM. In [1] (Mus musculus), this compound had an inhibition at 10 µM of 93%.

`O=C(Oc1ccccc1)N1Cc2ccccc2C(c2ccccc2Cl)c2ccccc21` (centres unmarked) [Compound 26, N-phenoxycarbonyl-11-(2′-chlorophenyl)-5,6-dihydro-11H-dibenz[b,e]azepine]: the melting point is 95 to 99 °C. Moreover, the inhibition at 10 µM in [1] (Mus musculus) worked out at 99%.

Take `Clc1ccccc1C(c1ccccc1)(c1ccccc1)n1ccnc1` [Clotrimazole, reference compound]: in series [2], the “overall body weight vs age matched control animals” value is on record as “no significant gains or losses”. For the same compound, in series [3], the “Ca^2+ release from intracellular pools” value was “releases Ca^2+ from intracellular pools” and the “capacitative Ca^2+ influx into the cell” value is reported as “inhibits capacitative Ca^2+ influx”. Besides, the “Lung Metastases” value in series [4] (MM-RU tumor-bearing mice, 120 mg/kg/d × 21, p.o.) came to 64 ± 20. In addition, in series [4] (setting [10]), the “Body Wt. Change” value was 86% and the “Liver Wt.” value is reported as 1.19 ± 0.10 gram. The inhibition at 10 µM in [1] was found to be 93%. Further, in series [5] (KLN induced tumors), the “cyclin D1 and PCNA expression in vivo” value is “abrogated cyclin D1 and PCNA expression”. Further, the tumor growth result in [5] (KLN-205, subcutaneous injection or oral administration of 80 mg/kg/day for 30 days) was “significantly inhibited tumor growth”.

`CN1Cc2ccccc2C(c2ccccc2)c2ccccc21` (centres unmarked) [Compound 2]: in [1] (Mus musculus), the inhibition at 10 µM stood at 99%.

`O=C(c1ccc2ccccc2c1)N1Cc2ccccc2C(c2ccccc2)c2ccccc21` (centres unmarked) [Compound 25] displayed an inhibition at 10 µM in [1] (Mus musculus) of 75%.

Consider `Nc1ccc(C(=O)N2Cc3ccccc3C(c3ccccc3Cl)c3ccccc32)cc1` (centres unmarked) [Compound 34], for which the values for the IC50 in the series with HTB174, in the series on HEPG2 and in the series on MMRU (setting [9]) were 0.9 µM, 1.5 µM and 1.2 µM, respectively. This compound also yielded an inhibition at 10 µM in series [1] (Mus musculus) of 99%.

`O=C(Oc1ccccc1)N1Cc2ccccc2C(c2ccccc2)c2ccccc21` (centres unmarked) [Compound 14, N-phenoxycarbonyl-11-phenyl-5,6-dihydro-11H-dibenz[b,e]azepine] showed a melting point of 155 to 165 °C. The same compound displayed an inhibition at 10 µM in [1] (Mus musculus) of 98%.

Regarding `COc1cccc2c1C(c1ccccc1Cl)c1cc(Cl)ccc1N(C(=O)c1ccc(Cl)cc1)C2` (centres unmarked) [Compound 24], in series [1] (Mus musculus), 10 µM produced 89% inhibition.

Regarding `COc1ccc2c(c1)CNc1ccc(Cl)cc1C2c1ccccc1Cl` (centres unmarked) [Compound 19], the inhibition at 10 µM in series [1] (Mus musculus) is 99%.

In the case of `c1ccc(C2c3ccccc3CNc3ccccc32)cc1` (centres unmarked) [Compound 1], the inhibition at 10 µM in [1] (Mus musculus) worked out at 56%.

Take `CNc1ccc(C(=O)N2Cc3ccccc3C(c3ccccc3Cl)c3ccccc32)cc1` (centres unmarked) [Compound 33]: in the series with HTB174, inhibition was half-maximal at 1.4 µM (IC50). This compound registered an inhibition at 10 µM in series [1] (Mus musculus) of 99%.

`Clc1ccccc1C1c2ccccc2CN(Cc2ccccc2)c2ccccc21` (centres unmarked) [Compound 8] had an inhibition at 10 µM in series [1] (Mus musculus) of 84%.
